Data: patent US20240075123A1, “TREATMENT OF CANCERS AND INFECTIOUS DISEASES WITH KILLED INTACT BACTERIA” (priority 2022, published 2024)

Key:
hepatitis B virus (HBV) [1] = assay: AAV-HBV mouse model of chronic HBV infection, second study; type: in vivo
Method: (§1) The anti-hepatitis B virus (HBV) efficacy of Decoy was evaluated in two studies. A standard pre-clinical model was used in which the human HBV genome is inserted in an adeno-associated virus (AAV). This hybrid construct is able to infect mouse hepatocytes, producing a chronic HBV-like infection with many of the hallmarks of human HBV infection, including high levels of HBV replication in liver and blood and production of HBe and HBs antigen (HBeAg and HBsAg). AAV-HBV virus is administered to mice and then blood titers of HBV DNA are monitored. Significant and relatively stable blood levels of HBV appear within 28-31 days, at which point treatment is initiated. Indomethacin was administered with Decoy in many groups in the first study, but not in the second study.
A group of untreated animals was included in the study. All treatment was well tolerated in AAV-HB V-infected mice.
No inhibition of other infection hallmarks was observed by mIFN-alpha.

hepatitis B virus (HBV) [2] = assay: AAV-HBV mouse model of chronic HBV infection, first study; type: in vivo; conditions: for HBV replication (measured in blood): 5 weeks of dosing
Method: as §1
In the first study, Decoy (two different doses) was tested in combination with indomethacin and also in combination with the clinical standard of care, Entecavir (ETV). ETV and indomethacin were also tested as single agents (first study). […] In addition, ETV and mIFN-alpha were tested as single agents and in combination with Decoy (one dose).
Decoy-induced body weight loss was mild, transient (6% for […] in first week of treatment) and tapered off after the first week of treatment (tolerance phenomenon) (FIG. 28).

[3] = test system: A20 non-Hodgkin's lymphoma; assay: s.c. A20 lymphoma, Decoy dose and regimen with LDC; type: in vivo, mouse; conditions: LDC alone
Method: A group of untreated animals was used as the control. LDC alone was also tested. Treatment was initiated on Day 13 when the average tumor size was 158 mm^3.

[4] = test system: A20 non-Hodgkin's lymphoma; assay: s.c. A20 lymphoma, repeat and immune cell depletion; type: in vivo, mouse; conditions: 212 mm^3 tumors; two weeks of treatment
Method: A group of untreated animals was used as the control. Treatment was started when the average tumor size was 212 mm^3. […] Combination with LDC produced 12% transient weight loss in the first week and 13.6% transient weight loss in the second week.
Tumor implantation was carried out during the depletion regimen. […] Extra mice in each group were sacrificed at the time of initiation of treatment in order to verify immune cell depletion. […] The positive control included 2 groups of 6 mice each (one group received indomethacin), with 10/12 CRs/regressions (6/6 regressions without indomethacin and 4/6 regressions with added indomethacin). […] Thus, in addition to immune activation associated with innate and adaptive immune cells, LPS provides a key bridging activity between the innate and adaptive immune systems.

[5] = test system: H22 hepatocellular carcinoma; conditions: mouse, in vivo
Method: Indomethacin was tested at 10 μg/mL in drinking water, p.o. ad libitum daily for either 4 or 7 weeks. […] Treatment was started when the average tumor size was 123 mm^3.

[6] = test system: CT26.WT colorectal carcinoma; assay: s.c. CT26.WT, Decoy (DB104) with cyclophosphamide (CTX); type: in vivo, mouse; conditions: vs untreated mice; Decoy single agent all doses (p<0.05); CTX both schedules
Method: Mouse CT26.WT colorectal carcinoma cells were implanted (injected) into the right flank of BALB/c mice. Animals were randomized and treatments were initiated (Starting Day=SD) with a mean group tumor weight of 75 to 79 mg. […] A group of animals that received no treatment was used as the control.

CT26 tumors = assay: s.c. established CT26 tumors, Decoy with LDC; type: in vivo, mouse; conditions: Decoy alone 6.0×10^8; LDC 20 mg/kg i.p.; combination 3×10^8 Decoy + LDC
Excerpt: LDC alone produced a 57% ILS, which was statistically significant.

[7] = test system: Pan02 pancreatic carcinoma; assay: Intrasplenic Pan02 pancreatic carcinoma, second experiment; type: in vivo, mouse; conditions: single agents
Excerpt: A group of animals administered Decoy vehicle was used as the control.

[8] = test system: Pan02 pancreatic carcinoma; assay: Intrasplenic Pan02 pancreatic carcinoma, first experiment; type: in vivo; conditions: Decoy 5×10^7 and 2×10^8 per mouse; gemcitabine 50 mg/kg i.p.
Excerpt: Pancreatic tumor cells were surgically implanted (injected) into the spleen of C57BL/6 female mice on Day 0. […] A group of untreated animals was used as the control. All untreated animals developed large tumors in the spleen, liver and pancreas, requiring termination around Day 30.

Ramos NHL xenograft = assay: s.c. human Ramos NHL xenograft in CB17/SCID mice; design: species or system mouse; conditions: in vivo
Method: This was tested with the human Ramos NHL xenograft model in SCID mice, which lack B and T cells.
Maximum transient weight loss for all non-indomethacin groups was generally in the 5% to 10% range. […] However, cure of at least some percentage of the mice is possible with the 3-way combination as a repeat produced 2/4 durable regressions in mice.
The 5 tumor-regressed mice were re-challenged with fresh Ramos tumor cells (opposite flank from first challenge) on Day 74. Only 2/5 tumors grew out, compared to 5/5 with naïve mice challenged with the same fresh tumor cells (FIG. 26). […] This has been reported previously with a small number of other agents, and is considered to be very difficult to achieve. Tumor regression with immunological memory via the innate immune system alone is very rare in preclinical models, but consistent with a multiple TLR agonist mechanism.

H22 tumors = assay: s.c. H22 HCC, plasma cytokine/chemokine induction and one-week treatment; type: in vivo, mouse
Method: Female BALB/c mice with ˜200 mm^3 H22 tumors were randomized on Day-0 into 8 groups, each containing 3 sub-groups. All of the possible treatment approaches or combinations, including no treatment, were carried out. Mice from each of two subgroups from each group (5 mice per sub-group) were sacrificed 6 and 24 hours after no treatment, single, 2-way, or 3-way combination treatment. In the case of 2way and 3-way combination treatment, mice were sacrificed 6 and 24 hours after the first treatment instance of the second or third component of the combination. Plasma was prepared from each mouse and 32-plex ELISA-based cytokine/chemokine analysis was carried out. A third sub-group from each group (6 mice each) was treated for one week, with tumor volumes measured at randomization, once during the week and at the end of one week of treatment. Mice were sacrificed, then tumors were harvested and RNA was isolated. The 48 RNA samples were analyzed for expression of 770 genes involved in immune response pathways, using NanoString technology.
Indomethacin induced expression of only 2/32 cytokines/chemokines, and only at 6 hours after initiation of treatment. […] There was no increase in weight loss in any of the combination groups, relative to single agent treatment. […]

HIV-1 = assay: Chronic HIV humanized hu-mouse model; type: in vivo; conditions: 5 weeks of treatment
[9] = test system: H22 hepatocellular carcinoma; assay: s.c. H22 hepatocellular carcinoma, second study (E0776-U1802); type: in vivo
Method: Indomethacin was tested at 10 μg/mL in drinking water, p.o. ad libitum daily for either 2 or 6 weeks. Anti-PD-1 was tested at 10 mg/kg, i.p. 2× per week for 2 weeks. Dosing was started when the average tumor size was 184 mm^3. A group of untreated animals was used as the control.

[10] = test system: H22 hepatocellular carcinoma; assay: s.c. H22 hepatocellular carcinoma, first study (194 mm^3); type: in vivo; conditions: single agents; Decoy QD×2 weekly 6 weeks
Method: Treatment was initiated when the average tumor size was 194 mm^3. […] Indomethacin was administered at 10 μg/mL, p.o., ad libitum daily in drinking water×6 weeks (alone and in combinations) and anti-PD-1 was administered at 10 mg/kg, i.p., BIW×2 weeks (alone and in combinations). A group of animals that received no treatment was used as the control in the study.

human PBMCs = assay: Cytokine secretion by human PBMCs in vitro; type: cell-based; conditions: 48 hr, full titration peak/mean of triplicates; Study AB64785
Method: TLR ligands such as E. coli LPS, ds E. coli DNA, E. coli peptidoglycan (PGN), Flagellin, R848, Polyinosinic-polycytidylic acid (poly I:C), and CpG oligonucleotide (ODN) were also assessed in these studies. Initial experiments were carried out with incubation for 24, 48 and 72 hours, as well as with and without immune cell activation with anti-CD3. […] In addition, maximal induction of secretion of most cytokines and chemokines occurred after 48 hours. […] Essentially all cytokines and chemokines participate in activation of innate and/or adaptive (including anti-tumor and anti-viral) immune pathways, but can also induce significant toxicity if expressed in the wrong place, at the wrong time, for too long, or at an inappropriately high level.

healthy human volunteers = conditions: purified LPS, over 1,000 healthy human volunteers; cited from earlier work

Molecule: C=C1[C@H](CO)[C@@H](O)C[C@@H]1n1cnc2c(=O)[nH]c(N)nc21 [ETV, Entecavir]
- plasma HBV DNA levels (hepatitis B virus (HBV) [1]; Day 31 to Day 151, no indomethacin): reduced plasma HBV DNA levels
- HBV DNA and HBeAg levels in mouse liver at termination (hepatitis B virus (HBV) [1]; mouse, in vivo): not
- plasma HBsAg and HBeAg levels (hepatitis B virus (HBV) [1]; mouse, in vivo): not
- HBV replication (measured in blood) (hepatitis B virus (HBV) [2]): significantly inhibited HBV replication
- HBeAg and HBsAg in blood (hepatitis B virus (HBV) [2]; mouse, in vivo): not to reduce or inhibit production of HBeAg or HBsAg
- inhibition of HBcAg in the liver (hepatitis B virus (HBV) [2]; mouse, in vivo): not
- reduction of HBV in the liver (hepatitis B virus (HBV) [2]; mouse, in vivo): not

Molecule: O=P1(N(CCCl)CCCl)NCCCO1 (stereo not drawn) [LDC, cyclophosphamide]
- tumor regression (group of 4) [3]: one
- regressions [4]: without producing any regressions
- single agent anti-tumor activity [5]: weak, but statistically significant
- inhibition of tumor growth [6]: significant tumor growth inhibition
- increased lifespan (% ILS) (CT26 tumors): 57%

Molecule: Nc1ccn([C@@H]2O[C@H](CO)[C@@H](O)C2(F)F)c(=O)n1 [gemcitabine]
- survival [7]: increased survival
- median survival time [8]: significant increase in median survival
- single agent anti-tumor activity [5]: weak, but statistically significant
- weight loss [5]: 20%

Molecule: COc1ccc2c(c1)c(CC(=O)O)c(C)n2C(=O)c1ccc(Cl)cc1 [indomethacin]
- survival [7]: did not increase survival significantly
- Transient weight loss [5]: not seen
- single agent anti-tumor activity (Ramos NHL xenograft): did not produce single agent activity
- plasma cytokines/chemokines induced (of 32) (H22 tumors; 6 or 24 hours after treatment): 2/32
- Tumor growth inhibition relative to no treatment (H22 tumors; after one week of treatment): 17%
- HIV viral load in plasma (HIV-1): inhibited HIV viral load
- HBV replication (measured in blood) (hepatitis B virus (HBV) [2]): did not inhibit HBV replication
- regressions ([9]; 6 week indomethacin treatment): did not see any regressions
- regressions (6 animals per group) ([9]; indomethacin 2 weeks, indomethacin 2 weeks+anti-PD-1, Decoy QD×2 6 weeks+indomethacin 6 weeks): one
- lifespan (ILS) ([9]; single agents, indomethacin 2 weeks and 6 weeks): statistically significant increase in lifespan
- increase in life-span (% ILS) [10]: 30%

Molecule: Polyinosinic-polycytidylic acid [Poly(I:C)]
- GM-CSF secretion by human PBMCs (human PBMCs): 0 pg/mL
- IFNγ secretion by human PBMCs (human PBMCs): 103 pg/mL
- IL-1β secretion by human PBMCs (human PBMCs): 22 pg/mL
- IL-6 secretion by human PBMCs (human PBMCs): 129 pg/mL
- IL-8 secretion by human PBMCs (human PBMCs): 1,452 pg/mL
- IL-10 secretion by human PBMCs (human PBMCs): 8 pg/mL
- IL-12p70 secretion by human PBMCs (human PBMCs): 18 pg/mL
- TNFα secretion by human PBMCs (human PBMCs): 208 pg/mL

Molecule: lipopolysaccharide [LPS]
- highest dose determined to be well-tolerated after IV administration (healthy human volunteers): 0.004 µg/kg
- GM-CSF secretion by human PBMCs (human PBMCs): 175 pg/mL
- IFNγ secretion by human PBMCs (human PBMCs): 29,416 pg/mL
- IL-1β secretion by human PBMCs (human PBMCs): 4,631 pg/mL
- IL-6 secretion by human PBMCs (human PBMCs): 54,174 pg/mL
- IL-8 secretion by human PBMCs (human PBMCs): 143,459 pg/mL
- IL-10 secretion by human PBMCs (human PBMCs): 3,542 pg/mL
- IL-12p70 secretion by human PBMCs (human PBMCs): 109 pg/mL
- TNFα secretion by human PBMCs (human PBMCs): 24,944 pg/mL

Molecule: rituximab
- single agent anti-tumor activity (Ramos NHL xenograft): inhibited or delayed
